Source: ChEMBL document CHEMBL3421556, “Bis(aminomethyl)phosphinic Acid, a Highly Promising Scaffold for the Development of Bacterial Urease Inhibitors” (ACS Med Chem Lett, 2015)

Columns and labels:
[1] = Inhibition of urease from Proteus mirabilis CCM 1944 using urea as substrate by Berthelot colorimetric assay
[2] = Inhibition of urease from Sporosarcina pasteurii CCM 2056 using urea as substrate by Berthelot colorimetric assay

SMILES | Ki ([1]; read-out: Ki) [µM] | Ki ([2]; read-out: Ki) [µM] | Ki [1] | Ki [2]
NCP(=O)(O)CN | 82 | 80 |  | 
CNCP(=O)(O)CN | 34 | 1.59 |  | 
CCCNCP(=O)(O)CN | 16 | 11.2 |  | 
CCCCNCP(=O)(O)CN | 25.9 | 9.6 |  | 
CC(C)CNCP(=O)(O)CN | 416 | 270 |  | 
CCCCCNCP(=O)(O)CN | 19 | 13.3 |  | 
CCCCCCNCP(=O)(O)CN | 0.202 | 0.108 |  | 
CCCCCCCNCP(=O)(O)CN | 778 | 543 |  | 
CCCCCCCCNCP(=O)(O)CN |  |  | Not Active | Not Active
NCP(=O)(O)CNC1CCCCC1 |  |  | Not Active | Not Active
CN(C)CP(=O)(O)CN | 24.4 | 4.66 |  | 
CCN(CC)CP(=O)(O)CN |  |  | Not Active | Not Active
NCP(=O)(O)CN1CCCCC1 |  |  | Not Active | Not Active
CN(Cc1ccccc1)CP(=O)(O)CN | 58.3 | 14.2 |  | 
CNCP(=O)(O)CNC | 17.2 | 4.3 |  | 
O=P(O)(CNCc1ccccc1)CNCc1ccccc1 | 24.5 | 30.1 |  | 
CN(C)CP(=O)(O)CN(C)C | 243 |  |  | Not Active
CC(=O)NO [ACETOHYDROXAMIC ACID] | 5.7 | 3.3 |  | 
